Test results from patent publication US5654116A, “Hologram” (priority 1993, dated 1997).

Assays:
[1] = Skin irritativeness, SPI value (skin irritation value of epoxy); details: for Toxicity Skin Irritativeness (SPI · %): ingredient of the adhesive of Example 5, Table 1
[2] = Toxicity of adhesive ingredients, LD 50 (Table 1); assay type: in vivo; details: ingredient of the adhesive of Example 5, Table 1

Compound: O=C1OC(=O)C2CC=CCC12 (stereo not shown) [alicyclic acid anhydride II, Tetrahydrophthalic anhydride]
- Toxicity Skin Irritativeness (SPI · %) [1]: 3 SPI · %
- skin irritativeness ([1]; result in words): low skin irritativeness

Compound: hydrogenated bisphenol A type epoxy [alicyclic epoxy]
- Toxicity LD 50 [2]: 3900 mg/kg
- Toxicity Skin Irritativeness (SPI · %) [1]: 3 SPI · %
